Experimental data as given in ChEMBL document CHEMBL5034018, “LXR-Mediated Regulation of Marine-Derived Piericidins Aggravates High-Cholesterol Diet-Induced Cholesterol Metabolism Disorder in Mice” (J Med Chem, 2021).
The source made the active and inactive calls. No cut-off for these calls is given here.

Columns and labels:
[1] = Hepatotoxicity in renal carcinoma xenografted C57BL/6 mouse assessed as effect on body weight at 0.8 mg/kg, ip; type: toxicity, organism-based; conditions: in vivo
[2] = Toxicity in renal carcinoma xenografted C57BL/6 mouse assessed as effect on visceral coefficient of heart at 0.8 mg/kg, ip; type: organism-based; conditions: in vivo
[3] = Toxicity in renal carcinoma xenografted C57BL/6 mouse assessed as effect on visceral coefficient of liver at 0.8 mg/kg, ip; type: organism-based; conditions: in vivo
[4] = Toxicity in renal carcinoma xenografted C57BL/6 mouse assessed as effect on visceral coefficient of lung at 0.8 mg/kg, ip; type: organism-based; conditions: in vivo
[5] = Toxicity in renal carcinoma xenografted C57BL/6 mouse assessed as effect on visceral coefficient of kidney at 0.8 mg/kg, ip; type: organism-based; conditions: in vivo
[6] = Hepatotoxicity in renal carcinoma xenografted C57BL/6 mouse assessed as liver swelling at 0.8 mg/kg, ip; type: toxicity, organism-based; conditions: in vivo
[7] = Hepatotoxicity in renal carcinoma xenografted C57BL/6 mouse assessed as white discoloration of liver at 0.8 mg/kg, ip; type: toxicity, organism-based; conditions: in vivo
[8] = Hepatotoxicity in renal carcinoma xenografted C57BL/6 mouse assessed as liver necrosis at 0.8 mg/kg, ip by histological analysis; type: toxicity, organism-based; conditions: in vivo
Mus musculus [9] = assay: Induction of HCD-induced cholestasis in C57BL/6 mouse assessed as lipid accumulation in liver at 0.8 mg/kg, ip; type: functional, organism-based
Mus musculus [10] = assay: Induction of HCD-induced cholestasis in C57BL/6 mouse assessed as large scale necrotic foci at 0.8 mg/kg, ip; type: functional, organism-based
[11] = Hepatotoxicity in renal carcinoma xenografted C57BL/6 mouse assessed as appearance of pyknotic nucleus at 0.8 mg/kg, ip by histological analysis; type: toxicity, organism-based; conditions: in vivo
[12] = Hepatotoxicity in renal carcinoma xenografted C57BL/6 mouse assessed as inflammatory infiltration at 0.8 mg/kg, ip by histological analysis; type: toxicity, organism-based; conditions: in vivo
[13] = Toxicity in renal carcinoma xenografted C57BL/6 mouse kidney assessed as change in CRE level at 0.8 mg/kg, ip; type: organism-based; conditions: in vivo
Mus musculus [14] = assay: Induction of histopathological changes in HCD-fed C57BL/6 mouse assessed as white discoloration of liver at 0.8 mg/kg, ip; type: organism-based; conditions: in vivo
HepG2 [15] = assay: Induction of mitochondrial dysfunction in human HepG2 cells assessed as increase in ROS production at 0.1 to 5 uM after 48 hrs by flow cytometric analysis; type: cell-based; conditions: hepg2, 48 h, dose 0.1-5 µM
HepG2 [16] = assay: Induction of apoptosis in human HepG2 cells assessed as necrotic cells at 5 uM measured after 48 hrs by Annexin-V-FITC/propidium iodide staining based flow cytometry (reference value: 0 %); type: functional
HepG2 [17] = assay: Induction of apoptosis in human HepG2 cells assessed as change in caspase 3 protein expression at 1 to 5 uM after 48 hrs; type: functional, cell-based; conditions: dose 1-5 µM
HepG2 [18] = assay: Induction of mitochondrial membrane potential loss in human HepG2 cells assessed as intact mitochondrial membrane potential at 5 uM after 48 hrs by TMRM dye based flow cytometric analysis (reference value: 74.2%); type: cell-based; conditions: hepg2, 48 h
Mus musculus [19] = assay: Induction of hepatic pathological changes in normal chow diet fed C57BL/6 mouse at 0.8 mg/kg, ip; type: organism-based; conditions: in vivo
Mus musculus [20] = assay: Induction of histopathological changes in HCD-fed C57BL/6 mouse assessed as striking subcapsular foci at 0.8 mg/kg, ip; type: organism-based; conditions: in vivo
Mus musculus [21] = assay: Induction of histopathological changes in HCD-fed C57BL/6 mouse assessed as swelling gallbladder size at 0.8 mg/kg, ip; type: organism-based; conditions: in vivo
[22] = Toxicity in HCD-fed C57BL/6 mouse assessed as body weight loss at 0.8 mg/kg, ip measured on day 28; type: organism-based; conditions: in vivo
[23] = Toxicity in HCD-fed C57BL/6 mouse assessed as fold increase in ALT level at 0.8 mg/kg, ip; type: organism-based; conditions: in vivo
[24] = Toxicity in HCD-fed C57BL/6 mouse assessed as fold increase in AST level at 0.8 mg/kg, ip; type: organism-based; conditions: in vivo
Mus musculus [25] = assay: Induction of HCD-induced cholestasis in C57BL/6 mouse assessed as fold increase in liver total cholesterol level at 0.8 mg/kg, ip; type: organism-based; conditions: in vivo
Mus musculus [26] = assay: Induction of HCD-induced cholestasis in C57BL/6 mouse assessed as fold increase in liver total bile acid level at 0.8 mg/kg, ip; type: organism-based; conditions: in vivo
Mus musculus [27] = assay: Induction of HCD-induced cholestasis in C57BL/6 mouse assessed as fold increase in liver LDL-cholesterol level at 0.8 mg/kg, ip; type: organism-based; conditions: in vivo
Mus musculus [28] = assay: Induction of HCD-induced cholestasis in C57BL/6 mouse assessed as fold increase in plasma total bile acid level at 0.8 mg/kg, ip; type: functional
[29] = Inhibition of FXR protein expression level in HCD-fed C57BL/6 mouse at 0.8 mg/kg, ip; type: functional; conditions: C57BL/6, ip
[30] = Effect on bile acid homeostasis in HCD-fed C57BL/6 mouse assessed as down regulation of Oatp1 mRNA expression by RT-qPCR analysis; type: functional
Mus musculus [31] = species: Mus musculus; assay: Effect on bile acid homeostasis in HCD-fed C57BL/6 mouse assessed as change in Bsep mRNA expression by RT-qPCR analysis; type: functional
Mus musculus [32] = species: Mus musculus; assay: Effect on bile acid homeostasis in HCD-fed C57BL/6 mouse assessed as change in Mrp2 mRNA expression by RT-qPCR analysis; type: functional
[33] = Effect on bile acid homeostasis in HCD-fed C57BL/6 mouse assessed as inhibition of Cyp8b1 mRNA expression by RT-qPCR analysis; type: functional; parameters: scale not given: the % may be the effect or the level left
Mus musculus [34] = species: Mus musculus; assay: Effect on bile acid homeostasis in HCD-fed C57BL/6 mouse assessed as change in Ugt1a1 mRNA expression by RT-qPCR analysis; type: functional
[35] = Effect on bile acid homeostasis in HCD-fed C57BL/6 mouse assessed as fold increase in LXRalpha mRNA expression by RT-qPCR analysis; type: functional
[36] = Effect on bile acid homeostasis in HCD-fed C57BL/6 mouse assessed as decrease in Car mRNA expression by RT-qPCR analysis; type: functional; parameters: scale not given: the % may be the effect or the level left
Mus musculus [37] = species: Mus musculus; assay: Effect on bile acid homeostasis in HCD-fed C57BL/6 mouse assessed as change in Car protein expression; type: functional
Mus musculus [38] = species: Mus musculus; assay: Effect on bile acid homeostasis in Chow diet-fed C57BL/6 mouse assessed as change in Car protein expression; type: functional
HepG2 [39] = assay: Cytotoxicity against human HepG2 cells assessed as reduction in cell viability at < 10 uM incubated for 48 hrs by MTT assay; type: cell-based; conditions: hepg2, 48 h
[40] = Down regulation of SHP mRNA level in human HepG2 cells at 5 uM by RT-qPCR analysis; type: functional
[41] = Induction of LDLR mRNA level in human HepG2 cells assessed as fold increase in LDLR expression at 5 uM by RT-qPCR analysis; type: functional
[42] = Down regulation of Cyp7a1 mRNA expression level in human HepG2 cells at 5 uM by RT-qPCR analysis; type: functional
[43] = Toxicity in mouse assessed as death at 10 mg/kg, po after 45 mins; type: organism-based; conditions: in vivo, 0.75 h

With `C/C=C(\C)[C@H](O[C@@H]1O[C@H](CO)[C@@H](O)[C@H](O)[C@H]1O)[C@H](C)/C=C(C)/C=C/C/C(C)=C/Cc1nc(OC)c(OC)c(O)c1C` the Activity [1] was “Non-Toxic”, the Activity [2] was “Non-Toxic” and the Activity [3] was “Non-Toxic”. For the same compound, the Activity [4] was “Non-Toxic”, the Activity [5] was “Non-Toxic” and the Activity [6] was “Non-Toxic”. The Activity [7] was “Non-Toxic”, the Activity [8] was “Toxic” and the Activity (Mus musculus [9]) was “Active”. The Activity (Mus musculus [10]) was “Active”, the Activity [11] was “Toxic” and the Activity [12] was “Toxic”. For the same compound, the Activity [13] was “Non-Toxic”, the Activity (Mus musculus [14]) was “Toxic” and the Activity (HepG2 [15]) was “Non-Toxic”. The Activity (HepG2 [16]) was 0%, the Activity (HepG2 [17]) was “Toxic” and the Activity (HepG2 [18]) was 16.6%. For the same compound, the Activity (Mus musculus [19]) was “Non-Toxic”, the Activity (Mus musculus [20]) was “Toxic” and the Activity (Mus musculus [21]) was “Toxic”. For the same compound, the Activity [22] was “Toxic”, the “fold change (FC)” value [23] was 3.8 and the “fold change (FC)” value [24] was 2.3. The “fold change (FC)” value (Mus musculus [25]) was 3.8, the “fold change (FC)” value (Mus musculus [26]) was 2.3 and the “fold change (FC)” value (Mus musculus [27]) was 2.9. The “fold change (FC)” value (Mus musculus [28]) was 3.5, the inhibition in vivo at 0.8 mg/kg [29] was 31% and the Activity [30] was 65%. The Activity (Mus musculus [31]) was “inactive”, the Activity (Mus musculus [32]) was “inactive” and the Activity [33] was 3%. For the same compound, the Activity (Mus musculus [34]) was “inactive”, the “fold change (FC)” value [35] was 1.4 and the Activity [36] was 86%. The Activity (Mus musculus [37]) was “inactive”, the Activity (Mus musculus [38]) was “inactive” and the Activity (HepG2 [39]) was “Non-Toxic”. The Activity [40] was 61%, the “fold change (FC)” value [41] was 2.2 and the Activity [42] was 38%. The Activity [43] was “Toxic”.

In the case of `C/C=C(\C)[C@H](O)[C@H](C)/C=C(C)/C=C/C/C(C)=C/Cc1nc(OC)c(OC)c(O)c1C` [PIERICIDIN A], the Activity [1] is reported as “Non-Toxic”, the Activity [2] is reported as “Non-Toxic” and the Activity [3] is reported as “Non-Toxic”. The Activity [4] was “Non-Toxic”, the Activity [5] was “Non-Toxic” and the Activity [6] was “Non-Toxic”. For the same compound, the Activity [7] was “Non-Toxic”, the Activity [8] was “Toxic” and the Activity (Mus musculus [9]) was “Active”. The Activity (Mus musculus [10]) was “Active”, the Activity [11] was “Toxic” and the Activity [12] was “Toxic”. The Activity [13] was “Non-Toxic”, the Activity (Mus musculus [14]) was “Toxic” and the Activity (HepG2 [15]) was “Non-Toxic”. The Activity (HepG2 [16]) was 0%, the Activity (HepG2 [17]) was “Toxic” and the Activity (HepG2 [18]) was 26.4%. The Activity (Mus musculus [19]) was “Non-Toxic”, the Activity (Mus musculus [20]) was “Toxic” and the Activity (Mus musculus [21]) was “Toxic”. The Activity [22] was “Toxic”, the “fold change (FC)” value [23] was 3.7 and the “fold change (FC)” value [24] was 2.3. For the same compound, the “fold change (FC)” value (Mus musculus [25]) was 2.7, the “fold change (FC)” value (Mus musculus [26]) was 2.2 and the “fold change (FC)” value (Mus musculus [27]) was 2.2. For the same compound, the “fold change (FC)” value (Mus musculus [28]) was 2.8, the inhibition in vivo at 0.8 mg/kg [29] was 79% and the Activity [30] was 66%. The Activity (Mus musculus [31]) was “inactive”, the Activity (Mus musculus [32]) was “inactive” and the Activity [33] was 2.8%. For the same compound, the Activity (Mus musculus [34]) was “inactive”, the “fold change (FC)” value [35] was 1.3 and the Activity [36] was 50%. The Activity (Mus musculus [37]) was “inactive”, the Activity (Mus musculus [38]) was “inactive” and the Activity (HepG2 [39]) was “Non-Toxic”. The Activity [40] was 30%, the “fold change (FC)” value [41] was 3.1 and the Activity [42] was 26%. The Activity [43] was “Non-Toxic”.
